# Test system: NICD (Notch intracellular domain) CSL-bla reporter in HeLa cells
# Test: Notch assay (CellSensor T-REx NICD CSL-bla HeLa beta-lactamase reporter; Method 1 / Method 2)
# Assay type: cell-based
# Conditions: Homo sapiens, 10 μM compound, Method 2 (40 nL of 1000× compound added to plate with Echo), read-out: inhibiton (%) at 10 μM
# Method in brief: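 HeLa cells carrying doxycycline-inducible NICD and a CSL-driven beta-lactamase reporter, 10^3 cells/well, were treated with compound plus doxycycline for 16-20 h at 37 °C. CCF4-AM substrate was loaded for 4 h at room temperature; background-subtracted blue (460 nm)/green (530 nm) emission ratio taken per well.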
row,SMILES,inhibition at 10 µM
1,"CC(C)CCOC(=O)N1O[C@H](Cc2ccc(O)cc2)C(=O)N2C1CN([C@@H](Cc1ccc(O)cc1)C(=O)NCCc1ccccc1)C(=O)[C@@H]2Cc1ccc(O)cc1 (stereo partly drawn) [Compound I-117, isopentyl (3R,6S)-3,6-bis(4-hydroxybenzyl)-8-((S)-3-(4-hydroxyphenyl)-1-oxo-1-(phenethylamino)propan-2-yl)-4,7-dioxohexahydropyrazino[2,1-c][1,2,4]oxadiazine-1(6H)-carboxylate]",59.7%
2,"CCCCCOC(=O)N1O[C@H](Cc2ccc(O)cc2)C(=O)N2C1CN([C@@H](Cc1ccc(O)cc1)C(=O)NCCc1ccccc1)C(=O)[C@@H]2Cc1ccc(O)cc1 (stereo partly drawn) [Compound I-118, pentyl (3R,6S)-3,6-bis(4-hydroxybenzyl)-8-((S)-3-(4-hydroxyphenyl)-1-oxo-1-(phenethylamino)propan-2-yl)-4,7-dioxohexahydropyrazino[2,1-c][1,2,4]oxadiazine-1(6H)-carboxylate]",63.3%
3,"CCCC[C@@H](C(=O)NCCc1ccccc1)N1CC2N(C(=O)OCCc3ccc(O)cc3)O[C@H](Cc3ccc(O)cc3)C(=O)N2[C@@H](Cc2ccc(O)cc2)C1=O (stereo partly drawn) [Compound I-119, 4-hydroxyphenethyl (3R,6S)-3,6-bis(4-hydroxybenzyl)-4,7-dioxo-8-((S)-1-oxo-1-(phenethylamino)hexan-2-yl)hexahydropyrazino[2,1-c][1,2,4]oxadiazine-1(6H)-carboxylate]",55.7%
4,"CC(C)CCNC(=O)[C@H](CC(C)C)N1CC2N(C(=O)OCCc3ccc(O)cc3)O[C@H](Cc3ccccc3)C(=O)N2[C@@H](C)C1=O (stereo partly drawn) [Compound I-120, 4-hydroxyphenethyl (3R,6S)-3-benzyl-8-((S)-1-(isopentylamino)-4-methyl-1-oxopentan-2-yl)-6-methyl-4,7-dioxohexahydropyrazino [2,1-c][1,2,4]oxadiazine-1(6H)-carboxylate]",67.1%
5,"CC(C)C[C@@H](C(=O)NCCc1ccccc1)N1CC2N(C(=O)OCCc3ccc(O)cc3)O[C@H](Cc3ccccc3)C(=O)N2[C@@H](C)C1=O (stereo partly drawn) [Compound I-121, 4-hydroxyphenethyl (3R,6S)-3-benzyl-6-methyl-8-((S)-4-methyl-1-oxo-1-(phenethylamino)pentan-2-yl)-4,7-dioxohexahydropyrazino [2,1-c][1,2,4]oxadiazine-1(6H)-carboxylate]",63.3%
6,"CCCC[C@@H](C(=O)NCCCC(C)C)N1CC2N(C(=O)OCCc3ccc(O)cc3)O[C@H](Cc3ccccc3)C(=O)N2[C@@H](C)C1=O (stereo partly drawn) [Compound I-122, 4-hydroxyphenethyl (3R,6S)-3-benzyl-6-methyl-8-((S)-1-((4-methylpentyl)amino)-1-oxohexan-2-yl)-4,7-dioxohexahydropyrazino [2,1-c][1,2,4]oxadiazine-1(6H)-carboxylate]",79.9%
7,"CC(C)C[C@H]1ON(C(=O)OCCc2ccccc2)C2CN([C@@H](Cc3ccccc3)C(=O)NCCCc3ccccc3)C(=O)[C@H](CCC(N)=O)N2C1=O (stereo partly drawn) [Compound I-123, phenethyl (3R,6S)-6-(3-amino-3-oxopropyl)-3-isobutyl-4,7-dioxo-8-((S)-1-oxo-3-phenyl-1-((3-phenylpropyl)amino)propan-2-yl)hexahydropyrazino[2,1-c][1,2,4]oxadiazine-1(6H)-carboxylate]",52.3%
8,"CCCC[C@@H](C(=O)NCCCc1ccccc1)N1CC2N(C(=O)OCCc3ccccc3)O[C@H](CC(C)C)C(=O)N2[C@@H](CCC(N)=O)C1=O (stereo partly drawn) [Compound I-124, phenethyl (3R,6S)-6-(3-amino-3-oxopropyl)-3-isobutyl-4,7-dioxo-8-((S)-1-oxo-1-((3-phenylpropyl)amino)hexan-2-yl)hexahydropyrazino[2,1-c][1,2,4]oxadiazine-1(6H)-carboxylate]",57.1%
9,"NC(=O)CC[C@H]1C(=O)N([C@@H](Cc2ccccc2)C(=O)NCCCc2ccccc2)CC2N(C(=O)OCCc3ccccc3)O[C@H](Cc3ccccc3)C(=O)N21 (stereo partly drawn) [Compound I-125, phenethyl (3R,6S)-6-(3-amino-3-oxopropyl)-3-benzyl-4,7-dioxo-8-((S)-1-oxo-3-phenyl-1-((3-phenylpropyl)amino)propan-2-yl)hexahydropyrazino [2,1-c][1,2,4]oxadiazine-1(6H)-carboxylate]",59.6%
10,"NC(=O)CC[C@H]1C(=O)N([C@@H](Cc2ccccc2)C(=O)NCCCc2ccccc2)CC2N(C(=O)OCCc3ccc(O)cc3)O[C@H](Cc3ccccc3)C(=O)N21 (stereo partly drawn) [Compound I-126, 4-hydroxyphenethyl (3R,6S)-6-(3-amino-3-oxopropyl)-3-benzyl-4,7-dioxo-8-((S)-1-oxo-3-phenyl-1-((3-phenylpropyl)amino)propan-2-yl)hexahydropyrazino [2,1-c][1,2,4]oxadiazine-1(6H)-carboxylate]",67.2%
11,"CCCCCOC(=O)N1O[C@H](Cc2ccccc2)C(=O)N2C1CN([C@@H](CC(C)C)C(=O)NCCCc1ccc(O)cc1)C(=O)[C@@H]2CCC(N)=O (stereo partly drawn) [Compound I-127, pentyl (3R,6S)-6-(3-amino-3-oxopropyl)-3-benzyl-8-((S)-1-((3-(4-hydroxyphenyl)propyl)amino)-4-methyl-1-oxopentan-2-yl)-4,7-dioxohexahydropyrazino [2,1-c][1,2,4]oxadiazine-1(6H)-carboxylate]",62.1%
12,"CC(C)C[C@H]1ON(C(=O)OCC2CCCCC2)C2CN(C3CCNCC3)C(=O)[C@H](CC(C)C)N2C1=O (stereo partly drawn) [Compound I-135, cyclohexylmethyl (3R,6S)-3,6-diisobutyl-4,7-dioxo-8-(piperidin-4-yl)hexahydropyrazino[2,1-c][1,2,4]oxadiazine-1(6H)-carboxylate]",110%
13,"CC(C)C[C@H]1ON(C(=O)OCc2cccc3ccccc23)C2CN(C3CCNCC3)C(=O)[C@H](CC(C)C)N2C1=O (stereo partly drawn) [Compound I-136, naphthalen-1-ylmethyl (3R,6S)-3,6-diisobutyl-4,7-dioxo-8-(piperidin-4-yl)hexahydropyrazino[2,1-c][1,2,4]oxadiazine-1(6H)-carboxylate]",79.7%
14,"CC(C)C[C@H]1ON(C(=O)OCc2cccc3ccccc23)C2CN(C3CCN(C)CC3)C(=O)[C@H](CC(C)C)N2C1=O (stereo partly drawn) [Compound I-137, naphthalen-1-ylmethyl (3R,6S)-3,6-diisobutyl-8-(1-methylpiperidin-4-yl)-4,7-dioxohexahydropyrazino[2,1-c][1,2,4]oxadiazine-1(6H)-carboxylate]",81.8%
15,"CC(C)C[C@H]1C(=O)N(C2CCN(C)CC2)CC2N(C(=O)OCc3ccccc3)O[C@H](CC3CCCCC3)C(=O)N21 (stereo partly drawn) [Compound I-138, benzyl (3R,6S)-3-(cyclohexylmethyl)-6-isobutyl-8-(1-methylpiperidin-4-yl)-4,7-dioxohexahydropyrazino[2,1-c][1,2,4]oxadiazine-1(6H)-carboxylate]",98.2%
16,"CN1CCC(N2CC3N(C(=O)OCc4ccccc4)O[C@H](CC4CCCCC4)C(=O)N3[C@@H](CC3CCCCC3)C2=O)CC1 (stereo partly drawn) [Compound I-139, benzyl (3R,6S)-3,6-bis (cyclohexylmethyl)-8-(1-methylpiperidin-4-yl)-4,7-dioxohexahydropyrazino [2,1-c][1,2,4]oxadiazine-1(6H)-carboxylate]",116%

# Reference: US20230374034A1, “NOVEL BICYCLIC COMPOUNDS” (PRISM BIOLAB CO., LTD., priority 2020, published 2023)
